From patent US20050019258A1, “Compound testing method” (priority 2003, published 2005)
Read-outs that look alike come from different tables or passages of the source.

Key:
[1] = system: guinea-pig bladder; assay: Ice-water test (IWT) in anaesthetised guinea-pig bladder, effect of RTX treatment; assay type: in vivo
Experimental: (§1) Anaesthesia was induced in female Dunkin-Hartley guinea-pigs (326-416 g) by exposure to 4% halothane in oxygen. A surgical level of anaesthesia was then obtained by administration of 1.2 g/kg i.p. urethane followed by 40 mg/kg α-chloralose via a catheterised jugular vein. Supplementary doses of urethane (0.05 g/kg i.v.) were given if required. Rectal temperature was maintained between 36.5 and 37° C. via a Harvard homeothermic blanket control unit and additional heating lamp. […] The trachea was cannulated and the animals artificially respired using an Ugo-Basile rodent ventilator. A carotid arterial blood sample (0.3 ml) was analysed for blood gases using a GEM Premier 3000 analyser and the ventilation volume adjusted, with air intake enriched with O2 if necessary, to set the level of blood PO2>70 mmHg, PCO2<40 mmHg and pH between 7.36 and 7.46.
(§2) The urinary bladder was exposed via a midline laparotomy and a double lumen catheter inserted into the lumen through an incision in the dome. The catheter was tied in place below the flanged tip of the outer tubing, followed by closure of the abdominal incision. […] The amplified EUS electromyogram (EUS EMG), the integrated EUS EMG and bladder pressure signals were recorded using Spike2 software (Cambridge Electronic Design). […]

[2] = system: patients with detrusor hyperreflexia; settings: 13 patients positive at baseline, cited from earlier work
[3] = system: guinea-pig bladder; assay: Ice-water test (IWT) in anaesthetised guinea-pig bladder, effect of menthol; assay type: in vivo
Experimental: as §1, §2

[4] = system: bladder cooling reflex; settings: 0.5 mM menthol in patients; cited from earlier work
[5] = system: bladder cooling reflex; settings: 0.6 mM menthol in cats; cited from earlier work

| SMILES | desensitisation of the 3° C. induced reduction in TV ([1]; 500 nM RTX infused into bladder) | difference of TV to 3° C. vs TV for 38° C. control response before RTX ([1]; 500 nM RTX, 100 min post RTX infusion, 95% C.I. −0.51, 0.20, p>0.05) | additional patients in whom IWT became negative ([2]; at 14 days, 50 or 100 nM RTX) | number of cases with negative IWT ([2]; at 90 days post treatment, 50 or 100 nM RTX) [cases] | number of patients in whom IWT became negative ([2]; immediately after instillation of 50 or 100 nM RTX) [patients] | threshold volume (TV) for micturition at 3° C. following menthol treatment ([3]; 0.6 mM menthol infused into bladder, 3° C. saline infusion, TV before menthol 1.90 ml, n=4) [mL] | difference in TV at 3° C. after menthol vs before menthol ([3]; 0.6 mM menthol, 95% C.I. −1.33, −0.57, p<0.001) | effect on bladder cooling reflex (shift of threshold temperature towards higher temperatures) [4] | effect on bladder cooling reflex (shift of threshold temperature towards higher temperatures) [5] |
| --- | --- | --- | --- | --- | --- | --- | --- | --- | --- |
| C=C(C)[C@]12C[C@@H](C)[C@@]34O[C@](Cc5ccccc5)(O[C@@H]1[C@@H]3C=C(COC(=O)Cc1ccc(O)c(OC)c1)C[C@]1(O)C(=O)C(C)=C[C@@H]41)O2 [RTX, resiniferatoxin] | Desensitisation | −0.16 | 2 | 8 | 4 |  |  |  |  |
| CC1CCC(C(C)C)C(O)C1 (stereo not drawn) [menthol] |  |  |  |  |  | 0.95 | −0.95 | Potentiation of the bladder cooling reflex | Potentiation of the bladder cooling reflex |
